In patent US20240300991A1, “NUCLEOSIDE DERIVATIVE HAVING MULTI-TARGET KINASE INHIBITORY ACTIVITY AND PHARMACEUTICAL COMPOSITION FOR PREVENTING AND TREATING CANCER COMPRISING SAME” (FUTURE MEDICINE CO., LTD., priority 2021, published 2024):

What was measured:
CSNK1D = biological target: T1, CSNK1D (Homo sapiens, UniProt P48730); assay: Kinase inhibition test (DNA-tagged kinase, affinity resin, qPCR readout); type: binding; set-up: key: (−) indicates no effect; (+) indicates weak inhibitory activity; (++) indicates a moderate level of inhibitory activity; (+++) indicates strong inhibitory activity; settings: 1 μM of compound
T1 construct: made in house
T1 sequence (P48730 whole entry): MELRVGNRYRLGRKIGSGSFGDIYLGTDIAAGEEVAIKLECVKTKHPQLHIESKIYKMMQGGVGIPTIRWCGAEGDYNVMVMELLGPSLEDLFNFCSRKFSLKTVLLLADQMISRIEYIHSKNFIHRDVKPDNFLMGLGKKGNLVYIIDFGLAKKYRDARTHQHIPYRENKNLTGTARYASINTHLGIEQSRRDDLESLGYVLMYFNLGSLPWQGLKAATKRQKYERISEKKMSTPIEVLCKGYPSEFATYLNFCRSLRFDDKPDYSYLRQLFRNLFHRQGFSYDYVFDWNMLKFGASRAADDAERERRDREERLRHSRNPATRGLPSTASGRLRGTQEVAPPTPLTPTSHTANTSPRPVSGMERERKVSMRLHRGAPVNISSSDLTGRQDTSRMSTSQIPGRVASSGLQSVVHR
From the text: (§1) In order to examine the inhibitory activity of the nucleoside derivatives of the present invention synthesized in the Preparation Examples against kinases, the nucleoside derivatives were confirmed to have inhibitory activity against neurotrophic tyrosine kinase receptor type 1 or tropomyosin receptor kinase A (NTRK1), casein kinase 1 isoform delta (CSNK1D), dual specificity tyrosine-phosphorylation-regulated kinase 1A (DYRK1A), dual specificity tyrosine-phosphorylation-regulated kinase 1B (DYRK1B) and receptor-type tyrosine-protein kinase or fms like tyrosine kinase 3 or cluster of differentiation antigen 135 (CD135) or fetal liver kinase-2 (Flk2) (FLT3).
(§2) The inhibition measurement method is as follows. Most of the kinases were produced by culturing a phage in which BL21 E. coli was tagged with a kinase at 32° C. until lysis, followed by centrifugation and filtration. Further, the kinases were produced using HEK-293 cells. Thereafter, the kinases were DNA tagged for qPCR. After an affinity resin was prepared by stirring a biotin-tagged substrate onto streptavidin-coated beads for 30 minutes, a non-specifically bound substrate was washed with a buffer (SeaBlock (Pierce), 1% BSA, 0.05% Tween 20, 1 mM DTT).
(§3) For a kinase test, the kinase, the substrate, the affinity resin, and a test material dissolved in dimethyl sulfoxide were stirred together in a buffer (20% SeaBlock, 0.17×PBS, 0.05% Tween20, and 6 mM DTT) at room temperature for 1 hour. Thereafter, an affinity substrate was washed with a buffer (1×PBS, 0.05% Tween20), and then suspended in an elution buffer (1×PBS, 0.05% Tween20, 0.5 μM non-biotinylated affinity ligand), and the resulting suspension was stirred. The concentration of the kinase was quantified by qPCR.

DYRK1A = biological target: T2, DYRK1A (Homo sapiens, UniProt Q13627); assay: as above; type: binding; set-up: key: (−) indicates no effect; (+) indicates weak inhibitory activity; (++) indicates a moderate level of inhibitory activity; (+++) indicates strong inhibitory activity; settings: 1 μM of compound
T2 construct: made in house
From the text: as §1, §2, §3

DYRK1B = biological target: T3, DYRK1B (Homo sapiens, UniProt Q9Y463); assay: as above; type: binding; set-up: key: (−) indicates no effect; (+) indicates weak inhibitory activity; (++) indicates a moderate level of inhibitory activity; (+++) indicates strong inhibitory activity; settings: 1 μM of compound
T3 construct: made in house
T3 sequence (Q9Y463 whole entry): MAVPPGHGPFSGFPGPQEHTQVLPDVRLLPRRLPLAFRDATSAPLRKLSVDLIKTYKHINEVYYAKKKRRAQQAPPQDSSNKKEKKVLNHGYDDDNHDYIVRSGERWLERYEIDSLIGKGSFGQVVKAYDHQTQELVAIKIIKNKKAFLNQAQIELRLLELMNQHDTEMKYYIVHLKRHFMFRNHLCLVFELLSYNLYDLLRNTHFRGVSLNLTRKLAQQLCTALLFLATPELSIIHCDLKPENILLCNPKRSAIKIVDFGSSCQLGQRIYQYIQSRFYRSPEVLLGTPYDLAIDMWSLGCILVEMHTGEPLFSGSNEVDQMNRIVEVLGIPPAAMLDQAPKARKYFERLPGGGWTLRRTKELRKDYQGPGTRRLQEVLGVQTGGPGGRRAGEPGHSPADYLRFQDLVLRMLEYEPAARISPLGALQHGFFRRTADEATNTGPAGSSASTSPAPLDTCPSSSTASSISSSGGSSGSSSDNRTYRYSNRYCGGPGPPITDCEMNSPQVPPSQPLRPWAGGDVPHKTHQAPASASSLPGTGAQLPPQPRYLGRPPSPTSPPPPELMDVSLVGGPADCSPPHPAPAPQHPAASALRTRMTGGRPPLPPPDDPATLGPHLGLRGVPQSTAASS
From the text: as §1, §2, §3

NTRK1 = biological target: T4, NTRK1 (Homo sapiens, UniProt P04629); assay: as above; type: binding; set-up: key: (−) indicates no effect; (+) indicates weak inhibitory activity; (++) indicates a moderate level of inhibitory activity; (+++) indicates strong inhibitory activity; settings: 1 μM of compound
T4 construct: made in house
T4 sequence (P04629 33-796): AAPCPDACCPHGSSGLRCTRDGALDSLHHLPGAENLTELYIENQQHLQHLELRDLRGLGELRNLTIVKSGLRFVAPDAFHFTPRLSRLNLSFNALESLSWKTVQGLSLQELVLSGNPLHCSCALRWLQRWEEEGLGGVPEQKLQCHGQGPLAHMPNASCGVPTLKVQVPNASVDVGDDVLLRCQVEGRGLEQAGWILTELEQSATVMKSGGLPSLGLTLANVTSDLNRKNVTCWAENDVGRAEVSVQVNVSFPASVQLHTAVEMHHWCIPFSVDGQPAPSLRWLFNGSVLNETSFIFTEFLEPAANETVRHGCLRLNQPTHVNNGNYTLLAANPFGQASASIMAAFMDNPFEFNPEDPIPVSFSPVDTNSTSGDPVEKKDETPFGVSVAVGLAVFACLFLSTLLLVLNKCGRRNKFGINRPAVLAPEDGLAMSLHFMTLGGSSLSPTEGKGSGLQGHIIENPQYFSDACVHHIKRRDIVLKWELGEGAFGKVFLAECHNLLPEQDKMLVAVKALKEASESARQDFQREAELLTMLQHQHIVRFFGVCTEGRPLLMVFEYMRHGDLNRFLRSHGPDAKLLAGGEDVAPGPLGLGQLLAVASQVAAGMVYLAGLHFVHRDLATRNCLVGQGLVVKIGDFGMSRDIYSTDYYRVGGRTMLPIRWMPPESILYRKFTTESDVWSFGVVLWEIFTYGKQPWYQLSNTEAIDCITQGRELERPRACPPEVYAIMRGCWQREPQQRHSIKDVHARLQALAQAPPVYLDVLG
From the text: as §1, §2, §3

A549 (lung cancer cells) = assay: Inhibitory activity against cancer cells (sulforhodamine B staining); type: cell-based; settings: 3 days, SRB staining
Experimental: (§4) In order to examine the anticancer activity of the nucleoside derivatives of the present invention synthesized in the Preparation Examples, the ICso of each of A549 (lung cancer cells), HCT116 (colon cancer cells), MDA-MB-231 (breast cancer cells), SK-Hep-1 (liver cancer cells), SNU638 (stomach cancer cells) and PC-3 (prostate cancer cells) against cancer cells was measured.
(§5) The test method is as follows. Cells were allowed to stand for 1 day and set as a control on day 0. Further, after a test material was added to the cells, the cells were allowed to stand for 3 days. Thereafter, the cells were stained with 1% acetic acid and 0.4% sulforhodamine B. The stained cells were dried and dissolved in 10 mM Tris (pH 10.0). Absorbance was measured at 515 nm, and the degree of cell division was determined using the following equation. After calculation as Cell division (%)=(average absorbancetest material−average absorbanceday 0)/(average absorbance control-average absorbanceday 0)×100, the degree of cell division was calculated through a non-linear regression analysis using Table Curve 2D v5.01 (Systat Software Inc., San Jose, CA, USA).

[1] = tested on: HCT116 (colon cancer cells); assay: as above; type: cell-based; settings: 3 days, SRB staining
Experimental: as §4, §5

[2] = tested on: MDA-MB-231 (breast cancer cells); assay: as above; type: cell-based; settings: 3 days, SRB staining
Experimental: as §4, §5

[3] = tested on: PC-3 (prostate cancer cells); assay: as above; type: cell-based; settings: 3 days, SRB staining
Experimental: as §4, §5

[4] = tested on: SK-Hep-1 (liver cancer cells); assay: as above; type: cell-based; settings: 3 days, SRB staining
Experimental: as §4, §5

[5] = tested on: SNU638 (stomach cancer cells); assay: as above; type: cell-based; settings: 3 days, SRB staining
Experimental: as §4, §5

Row | SMILES | CSNK1D inhibitory activity (CSNK1D) | DYRK1A inhibitory activity (DYRK1A) | DYRK1B inhibitory activity (DYRK1B) | NTRK1 inhibitory activity (NTRK1) | IC50 (A549 (lung cancer cells)) [nM] | IC50 [1] [nM] | IC50 [2] [nM] | IC50 [3] [nM] | IC50 [4] [nM] | IC50 [5] [nM] | IC50 (A549 (lung cancer cells); Homo sapiens, 72 h) [nM] | IC50 ([1]; Homo sapiens, HCT-116, 72 h) [nM] | IC50 ([2]; Homo sapiens, 72 h) [nM] | IC50 ([3]; 72 h) [nM] | IC50 ([4]; Homo sapiens, SK-HEP1, 72 h) [nM] | IC50 ([5]; Homo sapiens, SNU-638, 72 h) [nM]
1 | CCC#Cc1cn([C@@H]2S[C@H](CO)[C@@H](O)[C@H]2O)c2ncnc(N)c12 [Compound 4b] | + | + | + | + | > 50000 | > 50000 | > 50000 | > 50000 | > 50000 | > 50000 |  |  |  |  |  | 
2 | NC(=O)c1cn([C@@H]2SC[C@@H](O)[C@H]2O)c2ncnc(N)c12 [Compound 13g] | +++ | ++ | +++ | +++ | 5270 | 9730 | 5670 | 2240 | 2130 | 8460 |  |  |  |  |  | 
3 | NC(=O)c1cn([C@@H]2S[C@H](COC(=O)c3ccccc3)[C@@H](O)[C@H]2O)c2ncnc(N)c12 [Compound 7h] | +++ | +++ | +++ | ++ | 4780 | 1610 | 6790 | 3560 | 5090 | 5230 |  |  |  |  |  | 
4 | N#Cc1cn([C@@H]2S[C@H](CN)[C@@H](O)[C@H]2O)c2ncnc(N)c12 [Compound 10b] | ++ | +++ | +++ | ++ | 3830 | 2780 | 4750 | 2450 | 1630 | 1470 |  |  |  |  |  | 
5 | NC(=O)c1cn([C@@H]2S[C@H](CO)[C@@H](O)[C@H]2O)c2ncnc(N)c12 [Compound 6, 4-amino-7-((2R,3R,4S,5R)-3,4-dihydroxy-5-(hydroxymethyl)tetrahydrothiophen-2-yl)-7H-pyrrolo[2,3-d]pyrimidine-5-carboxamide] | ++ | +++ | ++ | + |  |  |  |  |  |  | 1990 | 1350 | 2100 | 1800 | 1660 | 1130
6 | N#Cc1cn([C@@H]2S[C@H](COC(=O)c3ccccc3)[C@@H](O)[C@H]2O)c2ncnc(N)c12 [Compound 7g] | +++ | +++ | +++ | ++ | 2580 | 3600 | 1560 | 2960 | 5620 | 3780 |  |  |  |  |  | 
7 | Nc1ncnc2c1c(-c1cccs1)cn2[C@@H]1SC[C@@H](O)[C@H]1O [Compound 13c] | +++ | ++ | ++ | +++ | 2910 | 3380 | 5160 | 7010 | 2740 | 4120 |  |  |  |  |  | 
8 | C#Cc1cn([C@@H]2S[C@H](CO)[C@@H](O)[C@H]2O)c2nc(Cl)nc(N)c12 [Compound 14, (2R,3R,4S,5R)-2-(4-amino-2-chloro-5-ethynyl-7H-pyrrolo[2,3-d]pyrimidin-7-yl)-5-(hydroxymethyl)tetrahydrothiophene-3,4-diol] | ++ | +++ | +++ | ++ |  |  |  |  |  |  | 350 | 7280 | 520 | 2450 | 1370 | 5460
9 | NC[C@H]1S[C@@H](n2cc(C(N)=O)c3c(N)ncnc32)[C@H](O)[C@@H]1O [Compound 10c] | ++ | ++ | ++ | ++ | 2510 | 1370 | 2430 | 2740 | 1760 | 2560 |  |  |  |  |  | 
10 | Nc1ncnc2c1c(-c1ccccc1)cn2[C@@H]1SC[C@@H](O)[C@H]1O [Compound 13d] | ++ | ++ | ++ | ++ | 6830 | 4310 | 5930 | 9900 | 7810 | 5660 |  |  |  |  |  | 
11 | Nc1ncnc2c1c(-c1ccco1)cn2[C@@H]1SC[C@@H](O)[C@H]1O [Compound 13b] | ++ | +++ | +++ | ++ | 960 | 860 | 1320 | 1740 | 640 | 1310 |  |  |  |  |  | 
12 | N#Cc1cn([C@@H]2S[C@H](CNC(N)=O)[C@@H](O)[C@H]2O)c2ncnc(N)c12 [Compound 11aii] | ++ | ++ | ++ | ++ | 2450 | 1830 | 1080 | 3560 | 2870 | 6730 |  |  |  |  |  | 
